Assay results reported in patent US20080269213A1, “8-Hydroxyquinoline compounds and methods thereof” (Wyeth, priority 2006, published 2008).
Several values for one entry are separate records, joined by “and”; a condition that tells them apart may be missing. Identical values can stand only once. Like-named read-outs stand apart in the source and are kept apart here. Values belong to the molecule of their own block, whether it stands above or below them.

Key:
[1] = target: T1, recombinant human Aggrecanase-2 Agg2-Phe628 (Homo sapiens, UniProt Q9UNA0); experiment: Aggrecanase 2 in vitro enzyme assay (Agg-2 FRET, quenched fluorescent peptide substrate); assay type: biochemical; set-up: purified recombinant human Aggrecanase-2 Agg2-Phe628 (MW=41,737); This is a truncated form of full-length human aggrecanase-2; made in house; host or cells: CHO cells
T1 sequence (Q9UNA0 262-628 limits assumed): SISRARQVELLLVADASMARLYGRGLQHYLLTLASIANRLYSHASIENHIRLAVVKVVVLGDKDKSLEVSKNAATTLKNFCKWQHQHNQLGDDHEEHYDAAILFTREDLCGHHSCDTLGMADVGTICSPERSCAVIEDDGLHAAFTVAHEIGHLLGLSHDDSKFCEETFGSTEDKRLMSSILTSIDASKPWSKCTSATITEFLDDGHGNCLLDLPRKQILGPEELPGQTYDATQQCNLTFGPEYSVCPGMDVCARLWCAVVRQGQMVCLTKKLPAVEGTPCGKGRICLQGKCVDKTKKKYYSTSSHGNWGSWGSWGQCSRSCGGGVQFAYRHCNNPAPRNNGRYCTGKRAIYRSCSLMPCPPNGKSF
In short: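 Continuous FRET assay with purified truncated human Aggrecanase-2 Agg2-Phe628 (CHO-expressed, 0.5 μg/ml final) and brevican-derived Abz/Dnp peptide (25 μM final) in 50 mM HEPES pH 7.5, 100 mM NaCl, 5 mM CaCl2, 0.1% CHAPS, 5% glycerol. Enzyme preincubated with compound before substrate; fluorescence (ex 340/em 420 nm) followed kinetically 40 min at 30 °C.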

[2] = target: T1, recombinant human Aggrecanase-2 Agg2-Phe628; experiment: Aggrecanase 2 enzyme fluorescence polarization assay; assay type: binding; set-up: recombinant human Aggrecanase-2, Agg2-Phe628 (41737 Da); This is a truncated form of full-length human aggrecanase-2; made in house
Source text: The fluorescence polarization assay is used to determine the dissociation constant of the enzyme:inhibitor complex (Ki) and the binding interaction mode (competitive, non-competitive or uncompetitive) of reversible inhibitors. The fluorescence polarization assay monitors the rotational motion of the fluorescent ligand. In the free state the fluorescent ligand has high rotational motion corresponding to a low polarization value and when fully bound to the protein, the fluorescent ligand has a lower rotational motion, corresponding to a higher polarization value. […]
Stock solutions of the fluorescent ligand are prepared in 100% DMSO and aliquots are stored at −80° C. The stock concentration was determined by a NMR ratio method, comparing the area under the control compound peak (TSP; trimethyl silyl proprionate sodium salt) to the area under a well-defined sample peak.
To determine the dissociation constant between Aggrecanase-2 and Compound C, saturation experiments were performed by adding various concentrations of aggrecanase to a constant concentration of Compound C (2 nM), in the assay buffer 50 mM HEPES-NaOH (pH 7.4), 100 mM NaCl, 5 mM CaCl2, 0.005% Brij-35. Anisotropy values were calculated and converted to fraction bound values as described in the data analysis section below. […] The equilibrium dissociation constant was determined to be 60+/−2.9 nM. […]

Agg-1 = target: T2, Agg-1 (Homo sapiens, UniProt O75173); experiment: Agg-1 FRET assay; assay type: biochemical; conditions: for inhibition at 22.2 µM: @ 22200 nM
T2 sequence (O75173 213-837): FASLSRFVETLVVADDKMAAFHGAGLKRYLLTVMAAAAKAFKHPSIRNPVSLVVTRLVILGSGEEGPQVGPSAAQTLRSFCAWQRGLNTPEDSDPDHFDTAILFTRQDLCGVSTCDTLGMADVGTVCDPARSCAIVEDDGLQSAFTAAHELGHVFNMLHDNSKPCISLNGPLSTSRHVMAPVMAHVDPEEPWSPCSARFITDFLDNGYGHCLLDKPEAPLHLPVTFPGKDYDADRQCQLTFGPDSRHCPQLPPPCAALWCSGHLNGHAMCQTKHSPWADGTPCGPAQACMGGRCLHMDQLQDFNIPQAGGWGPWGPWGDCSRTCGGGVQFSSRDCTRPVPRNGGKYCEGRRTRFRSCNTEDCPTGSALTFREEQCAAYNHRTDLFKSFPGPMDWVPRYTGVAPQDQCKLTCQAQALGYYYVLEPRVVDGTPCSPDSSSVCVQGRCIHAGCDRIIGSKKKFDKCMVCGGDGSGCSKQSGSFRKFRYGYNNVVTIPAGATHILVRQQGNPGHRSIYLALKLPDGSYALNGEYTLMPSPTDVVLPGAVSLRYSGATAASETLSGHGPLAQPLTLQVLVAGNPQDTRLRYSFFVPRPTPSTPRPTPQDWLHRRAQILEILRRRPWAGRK
Source text: The Agg-1/Agg-2 FRET data for N-[(8-hydroxyquinolin-2-yl)(phenyl)methyl]-2-phenoxyacetamide and 2-{[(phenoxyacetyl)amino](phenyl)methyl}quinolin-8-yl phenoxyacetate is presented in Table 1.

[3] = read-out: Agg-2 FRET Median IC50

SMILES: CN([C@H](CCCCNC(=O)OC(C)(C)C)C(=O)NO)S(=O)(=O)c1ccc(OCc2ccccc2)cc1 [Compound B, reference compound]
IC50 ([1]; established value of positive control, read-out: IC50 for rAgg-2): 37 nM
Ki ([2]; established value of positive control, read-out: Ki for rAgg-2): 39 nM

SMILES: CN(C)Cc1ccc(C(Cc2cc(Cl)c3cccnc3c2O)NC(=O)COc2ccccc2)o1 (stereo not drawn)
IC50 (Agg-1; IC50, read-out: Agg-1 IC50 (μM) or % Inhibition): 16.8 µM
inhibition at 200 µM ([1]; read-out: Agg-2 IC50 (μM) or % Inhibition): 68%

SMILES: CN([C@H](CCCCCNC(=O)c1ccc(-c2c3cc(F)c(=O)cc-3oc3cc(O)c(F)cc23)c(C(=O)O)c1)C(=O)NO)S(=O)(=O)c1ccc(OCc2ccccc2)cc1 [Compound C]
Kd ([2]; saturation experiment, 2 nM ligand, read-out: equilibrium dissociation constant between Aggrecanase-2 and fluorescent ligand): 60 nM

SMILES: COc1ccc2cc(C(NC(=O)COc3ccccc3)c3cc(Cl)c4cccnc4c3O)ccc2c1 (stereo not drawn) [Example 165, N-[(5-chloro-8-hydroxyquinolin-7-yl)(6-methoxy-2-naphthyl)methyl]-2-phenoxyacetamide]
inhibition at 22.2 µM (Agg-1; read-out: Agg1 %): 50%
IC50 ([1]; read-out: Agg2 IC50): 2300 nM

The remaining lines, values ahead:

inhibition at 22.2 µM (Agg-1; read-out: Agg1 %): 54%
IC50 ([1]; read-out: Agg2 IC50): 876 nM
IC50 [1, 3]: 876 nM and 1340 nM
SMILES: O=C(COc1ccccc1)N[C@H](c1ccccc1Cl)c1cc(Cl)c2cccnc2c1O [N-[(S)-(5-chloro-8-hydroxyquinolin-7-yl)(2-chlorophenyl)methyl]-2-phenoxyacetamide]

inhibition at 7.4 µM (Agg-1; @ 7400 nM, read-out: Agg1 %): 54%
IC50 ([1]; read-out: Agg2 IC50): 1400 nM
SMILES: O=C(COc1ccccc1)NC(c1cccc2c1OCO2)c1cc(Cl)c2cccnc2c1O (stereo not drawn) [N-[1,3-benzodioxol-4-yl(5-chloro-8-hydroxyquinolin-7-yl)methyl]-2-phenoxyacetamide]

IC50 (Agg-1; read-out: Agg1 IC50): > 2 µM
IC50 ([1]; read-out: Agg2 IC50): 4590 nM
IC50 [1, 3]: 4590 nM and 4360 nM
SMILES: Nc1cccc(C(NC(=O)COc2ccccc2)c2cc(Cl)c3cccnc3c2O)c1 (stereo not drawn) [Example 202, N-[(3-aminophenyl)(5-chloro-8-hydroxyquinolin-7-yl)methyl]-2-phenoxyacetamide]
